Laboratory results published in article PMC12655351, “Synthesis and Anticancer Activity Evaluation of New 5-((5-Nitrofuran-2-yl)allylidene)-2-thioxo-4-thiazolidinones” (Pharmaceuticals, 2025).

How the values were obtained:
M14 = conditions: human, 48 h
HOP-92 = conditions: human, 48 h
[1] = test system: reactive oxygen species in MCF-7 cells; assay: H2DCFDA and DAPI double staining; assay type: cell-based, human; conditions: MCF-7, 1 and 5 μM, one hour
Description: (§1) The double staining method was applied to analyze novel compounds’ effects on the generation of reactive oxygen species. The first dye, H2DCFDA, after conversion to DCF, serves as an indicator of oxidative stress (green fluorescence), while the second one, known as DAPI, was applied to showcase nuclear genetic material of MCF-7 and MDA-MB-231 breast cancer cells (blue fluorescence). The concentrations of compounds were 1 and 5 μM for the MCF-7 cell line and 5 and 10 μM for the MDA-MB-231 cell line. The incubation time after treatment was one hour in both cell lines.
(§2) The influences of 2b, 12b, 14b, and doxorubicin (1 and 5 µM and 5 and 10 µM for MCF-7 and MDA-MB-231 cell lines, respectively) on the generation of reactive oxygen species (ROS) were analyzed. Cells were seeded in 6-well culture plates at 1 × 10^5 cells per well in 1 mL of medium and then treated with compounds for 1 h and then washed with PBS. Double staining was conducted with 20 µM 2′,7′-dichlorodihydrofluorescein diacetate (H2DCFDA) reagent (Thermo Fisher Scientific, Eugene, OR, USA), which is colorless, and is cleaved by intracellular esterases and oxidized to the highly fluorescent 2′,7′-dichlorofluorescein (DCF), and 10 µg/mL of the fluorescent dye 4′,6-diamidino-2-phenylindole (DAPI) (Sigma-Aldrich, St. Louis, MO, USA), which visualizes the nuclear DNA of cells. A Nikon ECLIPSE Ti fluorescence microscope (Nikon, Tokyo, Japan) was used to obtain results which were analyzed using ImageJ software 1.54k (Bethesda, MD, USA). The fluorescence intensity of the DCF reagent was evaluated relative to the control. The number of analyzed cells was above 100.

[2] = test system: reactive oxygen species in MDA-MB-231 cells; assay: H2DCFDA and DAPI double staining; assay type: cell-based, human; conditions: MDA-MB-231, 5 and 10 μM, one hour
Description: as §1, §2

[3] = test system: mitochondrial membrane potential (ΔΨm) of MDA-MB-231 breast cancer cells; assay: JC-1 flow cytometry; assay type: cell-based, human; conditions: 24 h
Description: (§3) This method involves marking cells with fully functional mitochondria with red fluorescence due to the accumulation of the dye in hyperpolarized mitochondrial membrane. In case of a damaged membrane, the dye decomposes into monomers, emitting green fluorescence. […] For MDA-MB-231 cells, the values were as follows: 4.25% for 5 μM and 20.95% for 10 μM concentration. The obtained results signify the compound’s capability to decrease mitochondrial potential on both cell lines at a higher concentration (Figure 6).
(§4) The mitochondrial membrane potential (ΔΨm) was analyzed by using the JC-1 MitoScreen kit (BD Biosciences, San Diego, CA, USA). The tested compounds and reference drug were used in 1 and 5 µM concentrations on the MCF-7 cell line and 5 and 10 µM on the MDA-MB-231 cell line. After 24 h of incubation with the tested compounds, the assay was performed as described in the literature. The assay was performed using a flow cytometer (BD FACSCanto II, Becton Dickinson Biosciences Systems, San Jose, CA, USA), and results were obtained using FACSDiva software (version 6.1.3, BD Biosciences Systems, San Jose, CA, USA).

[4] = test system: mitochondrial membrane potential (ΔΨm) of MCF-7 breast cancer cells; assay: JC-1 flow cytometry; assay type: cell-based, human; conditions: 24 h
Description: as §3, §4

[5] = test system: cytochrome C in MCF-7 cells; assay: cytochrome C ELISA; assay type: cell-based, human; conditions: MCF-7, 5 μM, 24 h
Description: (§5) The influence of the examined compounds on the level of cytochrome C, one of the crucial proteins of the intrinsic pathway of programmed cell death, was assessed. This protein is released into the cytoplasm from the mitochondrial intermembrane space as a result of the decrease in mitochondrial membrane potential. […] The most significant result was reported for compound 14b at a concentration of 5 μM in the MCF-7 cell line and 10 µM in the MDA-MB-231 cell line, where the concentration of cytochrome C was 9.54 ng/mL and 15.26 ng/mL, respectively (Figure 10).
(§6) Using a SimpleStep ELISA kit (Abcam, Cambridge, UK), we determined the levels of cytochrome C and caspase-3 in cells’ lysates with 2b, 12b, and 14b (1 and 5 μM for the MCF-7 cell line and 5 and 10 μM for the MDA-MB-231) and doxorubicin in concentrations of 1 and 5 μM for both lines after 24 h incubation. Assays were performed according to the manufacturer’s protocols.

[6] = test system: cytochrome C in MDA-MB-231 cells; assay: cytochrome C ELISA; assay type: cell-based, human; conditions: MDA-MB-231, 10 μM, 24 h
Description: as §5, §6

[7] = test system: Bax protein in MCF-7 cells; assay: anti-Bax antibody flow cytometry; assay type: cell-based, human; conditions: MCF-7, 5 μM, 24 h
Description: (§7) The effect of the tested compounds on the intrinsic mitochondrial pathway of programmed cell death was further assessed. For this purpose, the concentration of the proapoptotic Bax protein from the Bcl-2 family was examined. The concentration of this protein was analyzed in breast cancer cells after treatment with novel compounds at concentrations of 1 and 5 µM for the MCF-7 line and 5 and 10 µM for the MDA-MB-231 line.
(§8) An anti-Bax FITC-conjugated antibody was applied to evaluate the effect of tested compounds on the concentration of Bax protein in this experiment. First, MCF-7 and MDA-MB-231 cells were seeded into 6-well plates at 5 × 10^5 cells per well. Test compounds 2b, 12b, and 14b were then added at concentrations of 1 and 5 µM and 5 and 10 µM for MCF-7 and MDA-MB-231, respectively. The concentration of doxorubicin as a reference compound was 1 and 5 µM for both lines. After 24 h of incubation, cells were harvested, centrifuged, washed with 1 mL of PBS, and then fixed with 4% paraformaldehyde for 15 min at RT. After removal of the paraformaldehyde, cells were washed with PBS, then resuspended in 0.5 mL of cold 90% methanol, and frozen at −20 °C. […] The prepared samples were read immediately using the BD FACS Canto II flow cytometer (Becton Dickinson Biosciences, San Jose, CA, USA).

MDA-MB-468 = conditions: human, 48 h
[8] = test system: Bax protein in MDA-MB-231 cells; assay: anti-Bax antibody flow cytometry; assay type: cell-based, human; conditions: MDA-MB-231, concentration not stated (5 or 10 µM), 24 h
Description: as §7, §8

IGROV1 = conditions: human, 48 h

O=C(O)CCCCCN1C(=O)/C(=C/C=C/c2ccc([N+](=O)[O-])o2)SC1=S [14b, 6-((Z)-5-((E)-3-(5-nitrofuran-2-yl)allylidene)-4-oxo-2-thioxothiazolidin-3-yl)hexanoic acid]
CC50 (M14): 3.23 µM
CC50 (HOP-92): 5.84 µM
generation of reactive oxygen species [1]: highest generation of ROS
generation of reactive oxygen species [2]: highest generation of ROS
Decreased Δψ (decrease in mitochondrial potential) ([3]; MDA-MB-231, 5 μM): 4.25%
Decreased Δψ (decrease in mitochondrial potential) ([3]; MDA-MB-231, 10 μM): 20.95%
Decreased Δψ (decrease in mitochondrial potential) ([4]; MCF-7, 1 μM): 8.75%
Decreased Δψ (decrease in mitochondrial potential) ([4]; MCF-7, 5 μM): 20.25%
concentration of cytochrome C [5]: 9.54 ng/mL
concentration of cytochrome C [6]: 15.26 ng/mL
Bax-positive cell population [7]: 14.67%
CC50 (MDA-MB-468): 4.29 µM

CC(C(=O)O)N1C(=O)/C(=C/C=C/c2ccc([N+](=O)[O-])o2)SC1=S (centres unmarked) [2b, 2-((Z)-5-((E)-3-(5-Nitrofuran-2-yl)allylidene)-4-oxo-2-thioxothiazolidin-3-yl)propanoic acid]
Bax-positive cell population [8]: 26.33%

O=C(O)CCCN1C(=O)/C(=C/C=C/c2ccc([N+](=O)[O-])o2)SC1=S [13b, 4-((Z)-5-((E)-3-(5-Nitrofuran-2-yl)allylidene)-4-oxo-2-thioxothiazolidin-3-yl)butanoic acid]
CC50 (IGROV1): 7.77 µM
